Data published in patent US20240158446A1, “CYCLIC COMPOUND HAVING SELECTIVE INHIBITORY ACTION ON KRAS OVER HRAS AND NRAS” (CHUGAI SEIYAKU KABUSHIKI KAISHA, priority 2021, published 2024).

Assays:
[1] = molecular target: GDP-bound KRAS wild-type protein (Homo sapiens, UniProt P01116); assay: Binding to KRAS by surface plasmon resonance (SPR), Single Cycle Kinetics; conditions: SPR Single Cycle Kinetics, GDP-bound KRAS wild-type protein, 1:1 binding model; read-out: KRAS KD
[2] = molecular target: GDP-bound NRAS wild-type protein (Homo sapiens, UniProt P01111); assay: Binding to NRAS by surface plasmon resonance (SPR), Single Cycle Kinetics; conditions: SPR KD ratio NRAS/KRAS, class symbols
[3] = molecular target: GDP-bound HRAS wild-type protein (Homo sapiens, UniProt P01112); assay: Binding to HRAS by surface plasmon resonance (SPR), Single Cycle Kinetics; conditions: SPR KD ratio HRAS/KRAS, class symbols
GDP-bound HRAS wild-type protein, sequence (P01112 whole entry): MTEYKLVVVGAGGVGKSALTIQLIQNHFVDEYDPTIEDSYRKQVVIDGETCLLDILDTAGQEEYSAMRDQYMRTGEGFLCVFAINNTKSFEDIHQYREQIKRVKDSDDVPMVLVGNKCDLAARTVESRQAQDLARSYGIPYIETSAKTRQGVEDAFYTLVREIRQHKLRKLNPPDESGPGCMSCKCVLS

GDP-bound NRAS wild-type protein, sequence (P01111 whole entry): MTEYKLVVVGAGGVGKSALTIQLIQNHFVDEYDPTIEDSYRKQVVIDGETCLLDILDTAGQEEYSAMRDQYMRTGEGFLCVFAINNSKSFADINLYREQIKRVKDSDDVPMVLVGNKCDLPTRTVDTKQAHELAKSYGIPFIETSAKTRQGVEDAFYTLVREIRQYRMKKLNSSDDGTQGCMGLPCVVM
GDP-bound KRAS wild-type protein, sequence (P01116 whole entry): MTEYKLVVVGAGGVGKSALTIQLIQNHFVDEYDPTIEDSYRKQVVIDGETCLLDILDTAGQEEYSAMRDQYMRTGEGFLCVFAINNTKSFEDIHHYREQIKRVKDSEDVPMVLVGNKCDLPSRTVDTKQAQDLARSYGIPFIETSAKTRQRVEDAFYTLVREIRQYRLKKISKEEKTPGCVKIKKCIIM

SMILES	Kd [1] [pM]	NRAS/KRAS (ratio of KD value with respect to GDP-bound NRAS wild-type protein to KD value with respect to KRAS) [2]	HRAS/KRAS (ratio of KD value with respect to GDP-bound HRAS wild-type protein to KD value with respect to KRAS) [3]
CCO[C@@H]1C[C@H]2C(=O)NC3(CCC3)C(=O)N(C)[C@@H](C3CCCC3)C(=O)N(C)[C@H](C(=O)N(C)CC)CC(=O)N(C)[C@@H](CC3CCC3)C(=O)N[C@@H]([C@@H](C)CC)C(=O)N(C)CC(=O)N(C)[C@H]3C/C=C\CCN(C3=O)[C@@H](Cc3ccc(C(F)(F)F)cc3)C(=O)N(C)CC(=O)N[C@@H](CCc3ccc(C(F)(F)F)c(Cl)c3)C(=O)N2C1 [PP2826]	140	A (a compound having 10 or more and less than 20 is denoted as A)	A (a compound having 10 or more and less than 20 is denoted as A)
CCO[C@@H]1C[C@H]2C(=O)NC3(CC(C)(C)C3)C(=O)N(C)[C@@H](C3CCCC3)C(=O)N(C)[C@H](C(=O)N(C)CC)CC(=O)N(C)[C@@H](CC(C)C)C(=O)N[C@@H]([C@@H](C)CC)C(=O)N(C)CC(=O)N(C)[C@H]3C/C=C\CCN(C3=O)[C@@H](Cc3ccc(C(F)F)cc3)C(=O)N(C)CC(=O)N[C@@H](CCc3ccc(Cl)c(Cl)c3)C(=O)N2C1 [PP2827]	380	A (a compound having 10 or more and less than 20 is denoted as A)	B (a compound having 3 or more and less than 10 is denoted as B)
CCO[C@@H]1C[C@H]2C(=O)NC3(CC(C)(C)C3)C(=O)N(C)[C@@H](C3CCCC3)C(=O)N(C)[C@H](C(=O)N(C)CC)CC(=O)N(C)[C@@H](CC(C)C)C(=O)N[C@@H]([C@@H](C)CC)C(=O)N(C)CC(=O)N(C)[C@H]3C/C=C\CCN(C3=O)[C@@H](Cc3ccc(C(F)F)cc3)C(=O)N(C)CC(=O)N[C@@H](CCc3ccc(C(F)(F)F)c(OC)c3)C(=O)N2C1 [PP2828]	110	A (a compound having 10 or more and less than 20 is denoted as A)	A (a compound having 10 or more and less than 20 is denoted as A)

Second part, led by results:

Kd [1] [pM]	SMILES	NRAS/KRAS (ratio of KD value with respect to GDP-bound NRAS wild-type protein to KD value with respect to KRAS) [2]	HRAS/KRAS (ratio of KD value with respect to GDP-bound HRAS wild-type protein to KD value with respect to KRAS) [3]
95	CCO[C@@H]1C[C@H]2C(=O)NC3(CC(C)(C)C3)C(=O)N(C)[C@@H](C3CCCC3)C(=O)N(C)[C@H](C(=O)N(C)CC)CC(=O)N(C)[C@@H](CC(C)C)C(=O)N[C@@H]([C@@H](C)CC)C(=O)N(C)CC(=O)N(C)[C@H]3C/C=C\CCN(C3=O)[C@@H](Cc3ccc(C(F)F)cc3)C(=O)N(C)CC(=O)N[C@@H](CCc3ccc(C(F)(F)F)c(Cl)c3)C(=O)N2C1 [PP2829]	A (a compound having 10 or more and less than 20 is denoted as A)	A (a compound having 10 or more and less than 20 is denoted as A)
110	CCCOC[C@H]1C(=O)N[C@@H]([C@@H](C)CC)C(=O)N(C)CC(=O)N(C)[C@H]2C/C=C\CCN(C2=O)[C@@H](Cc2ccc(C(F)(F)F)cc2)C(=O)N(C)CC(=O)N[C@@H](CCc2ccc(C(F)(F)F)c(Cl)c2)C(=O)N2C[C@H](OCC)C[C@H]2C(=O)NC2(CCC2)C(=O)N(C)[C@@H](C2CCCC2)C(=O)N(C)[C@H](C(=O)N(C)CCC)CC(=O)N1C [PP2831]	A (a compound having 10 or more and less than 20 is denoted as A)	A (a compound having 10 or more and less than 20 is denoted as A)
180	CCO[C@@H]1C[C@H]2C(=O)NC3(CC(C)(C)C3)C(=O)N(C)[C@@H](C3CCCC3)C(=O)N(C)[C@H](C(=O)N(C)C)CC(=O)N(C)[C@@H](CC(F)(F)F)C(=O)N[C@@H]([C@@H](C)CC)C(=O)N(C)CC(=O)N(C)[C@H]3C/C=C\CCN(C3=O)[C@@H](Cc3ccc(C(F)(F)F)cc3)C(=O)N(C)CC(=O)N[C@@H](CCc3ccc(Cl)c(Cl)c3)C(=O)N2C1 [PP2832]	A (a compound having 10 or more and less than 20 is denoted as A)	A (a compound having 10 or more and less than 20 is denoted as A)
